{"source": "patent US8367729B2", "about": "“Composition with preventive or improvement effect on symptoms or diseases associated with stress-induced behavior disorders” (Suntory Holdings Limited, priority 2004, dated 2013)", "key": {"[1]": {"system": "mice subjected to restraint stress", "assay": "Behavioral observation test (Irwin neurobehavioral test method) after 6-hour restraint stress", "assay_type": "in vivo, male ICR mice", "conditions": "conclusion of Example 3", "description": "The experimental groups consisted of 51 two- to three-month-old male ICR mice, divided into a control diet group (27 mice) and a TG[…]-containing diet group (24 mice), with the control diet or TG[…]-containing diet shown in Table 1 being given to each group. Each group was further divided into non-restrained groups (non-restrained control diet group (9), non-restrained arachidonic acid (ARA) diet group (12)) and restrained groups (restrained control diet group (18), restrained ARA diet group (12)). The restraining was accomplished using a wire mesh restraining tube, once for a 6 hour period three weeks after the start of feeding. The control diet or TG[…]-containing diet shown in Table 1 continued to be fed to each group for the remaining experiment period. The TG[…] used for the TG[…]-containing diet was the product obtained in Example 1. Since the daily ingestion was approximately 5 g per mouse, the daily intake of TG[…] was 25 mg per mouse. Also, since the total fatty acids bonded to the arachidonic acid-containing oils or fats (triglycerides) prepared in Example 1 included 40 wt % arachidonic acid, the daily intake of arachidonic acid was 10 mg per mouse. The 6-hour restraint with a wire mesh restraining tube was immediately followed by a behavioral observation test. […]"}, "[2]": {"system": "IL-1β induced stress anxiety behavior models", "conditions": "administration of free arachidonic acid; J Lipid Res. 44, 1984, 2003; cited from earlier work"}}}
{"smiles": "CCCCC/C=C\\C/C=C\\C/C=C\\C/C=C\\CCCC(=O)O", "note": "[arachidonic acid]", "values": [{"measurement": "overall effect on behavioral patterns altered as a result of stress", "setting": "[1]", "value": "exhibits an improving effect against behavioral disorders"}, {"measurement": "effect on IL-1β induced stress anxiety behavior", "setting": "[2]", "value": "not effective"}]}
